The values below are quoted from earlier work in patent publication US12472190B2, “Pharmaceutical compositions” (CIPLA Limited, priority 2010, dated 2025).

SMILES strings stand for the structures.

The conditions of the data set: relative to S (−) isomer of budesonide; no test described.

As to `CCC[C@@H]1O[C@@H]2C[C@H]3[C@@H]4CCC5=CC(=O)C=C[C@]5(C)[C@H]4[C@@H](O)C[C@]3(C)[C@]2(C(=O)CO)O1` [R (+) budesonide], the “anti-inflammatory properties as compared to S (−) isomer” value was “nearly three times as strong”.
